Measured values as given in ChEMBL document CHEMBL1149993, “Simple cis-epoxide-based inhibitors of HIV-1 protease” (Bioorg Med Chem Lett, 1997).

How the values were obtained:
[1] = biological target: Human immunodeficiency virus type 1 protease (Human immunodeficiency virus 1) (UniProt Q72874); experiment: The compound was evaluated for irreversible inhibition of HIV-1 protease
[2] = biological target: Human immunodeficiency virus type 1 protease (Human immunodeficiency virus 1) (UniProt Q72874); experiment: The compound was evaluated for irreversible inhibition of HIV-1 protease at 20 uM
[3] = biological target: Human immunodeficiency virus type 1 protease (Human immunodeficiency virus 1) (UniProt Q72874); experiment: Maximal inactivation rate towards HIV-1 protease was evaluated
[4] = Bimolecular rate constant is the ratio of Vinact/Kinact
[5] = biological target: Human immunodeficiency virus type 1 protease (Human immunodeficiency virus 1) (UniProt Q72874); experiment: The compound was evaluated for irreversible inhibition of HIV-1 protease at pH 6.5

Compound | K inact [1] | inhibition [2] | also measured
CC(C)C[C@@H]1O[C@@H]1[C@H](Cc1ccccc1)NC(=O)[C@H](C)NC(=O)[C@H](Cc1ccccc1)NC(=O)OCc1ccccc1 | 20 µM |  | 
COC(=O)C(NC(=O)[C@@H]1O[C@@H]1COc1ccc([N+](=O)[O-])cc1)C(C)C (some centres not stated) |  | 22% | 
CC(C)C(NC(=O)OCc1ccccc1)C(=O)NC(C(=O)OC[C@@H]1O[C@@H]1COc1ccc([N+](=O)[O-])cc1)C(C)C (some centres not stated) |  | 25% | 
O=C(OCC1c2ccccc2-c2ccccc21)N1CCC2OC2C1 (configuration not stated) | 65 µM |  | 
COC(=O)C(CC(C)C)NC(=O)[C@@H]1O[C@@H]1CCc1ccccc1 (some centres not stated) |  | 19% | 
COC(=O)C(CC(C)C)NC(=O)[C@@H]1O[C@@H]1COc1ccc([N+](=O)[O-])cc1 (some centres not stated) |  | 30% | 
O=[N+]([O-])c1ccc(OCC2CO2)cc1 (configuration not stated) | 11000 µM |  | 
CC(C)C(NC(=O)OCc1ccccc1)C(=O)N[C@@H](Cc1ccccc1)[C@@H]1O[C@@H]1[C@H](Cc1ccccc1)NC(=O)C(NC(=O)OCc1ccccc1)C(C)C (some centres not stated) | 0.075 µM |  | 
CC(C)C(NC(=O)OCc1ccccc1)C(=O)OC[C@@H]1O[C@@H]1COc1ccc([N+](=O)[O-])cc1 (some centres not stated) |  | 88% | Vinact [3]: 0.26 min⁻¹; Ratio [4]: 140000 M⁻¹ min⁻¹; K inact [5]: 1.8 µM
